Drawing on PMC12643063, “Mechanistic basis for inhibition of the extended‐spectrum β‐lactamase GES‐1 by enmetazobactam and tazobactam” (Febs Letters, 2025), this text covers IC50 for two compounds.

For assay [1], the target named is T1, GES-1 (Guiana extended-spectrum β-lactamase 1) (Klebsiella pneumoniae, UniProt Q9KJY7).
T1 construct: pOPIN-F, expressed in SoluBL21 (DE3) E. coli
As to the kind of experiment: ([…] Å), mass spectrometry; IC50 by nitrocefin hydrolysis, […] min pre-incubation. It counts as biochemical.

Assay [2] has as its target T1, GES-1 (Guiana extended-spectrum β-lactamase 1). Description: ([…] Å; […] Da aldehyde fragment on Ser70), mass spectrometry; IC50 by nitrocefin hydrolysis, […] min pre-incubation. It counts as biochemical.

T1 sequence (Q9KJY7 18-287): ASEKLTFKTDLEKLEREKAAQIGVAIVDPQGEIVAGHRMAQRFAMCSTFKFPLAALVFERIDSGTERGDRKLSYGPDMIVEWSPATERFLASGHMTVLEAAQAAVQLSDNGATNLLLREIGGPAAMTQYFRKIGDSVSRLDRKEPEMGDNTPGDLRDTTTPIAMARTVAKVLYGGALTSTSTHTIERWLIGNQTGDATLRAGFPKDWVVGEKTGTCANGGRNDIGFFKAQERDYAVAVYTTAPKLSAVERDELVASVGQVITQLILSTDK

What is called IC50 is the midpoint of a concentration-inhibition curve. Low values mean inhibition by little substance, high ones a need for much substance. Compound `C[n+]1ccn(C[C@@]2(C)[C@H](C(=O)O)N3C(=O)C[C@H]3S2(=O)=O)n1` [enmetazobactam] yielded a half-inhibitory concentration (IC50) in assay [1] of 107 nM.
`C[C@]1(Cn2ccnn2)[C@H](C(=O)O)N2C(=O)C[C@H]2S1(=O)=O` [tazobactam]: the midpoint of inhibition in assay [2], the IC50, lay at 444 nM.
